Measured values as given in article PMC8945229, “Development and Biological Characterization of a Novel Selective TrkA Agonist with Neuroprotective Properties against Amyloid Toxicity” (Biomedicines, 2022).

Assays:
[1] = test system: Primary hippocampal neurons; assay: Synaptophysin synapse assay in primary hippocampal neurons treated with oligomeric Aβ; type: cell-based, mouse; conditions: 5 μM oligomeric Aβ, 500 nM, 4 h
Experimental: Primary hippocampal neurons were isolated from E17.5 mouse embryos (C57BL/6J, The Jackson Laboratory, Bar Harbor, ME, USA) as previously described and cultured with Neurobasal medium containing 2% B27, 1X GlutaMax, 10 mM HEPES and 1% PenStrep. Cells were maintained in a humified incubator at 37 °C and 5% CO2. For TUNEL assay, cells were left in culture for 16–18 days and then treated with 5 μM oligomeric Aβ along with ENT-A013 (500 nM, every 24 h) for 48 h. Cells were then fixed with 4% PFA and labelled with TUNEL (F. Hoffmann–La Roche Ltd., Basel, Switzerland, cat# 11684795910) following the manufacturer’s protocol. Subsequently, cells were immunostained against Tuj1 and imaged with confocal microscopy. For synaptic plasticity assay, cells were left in culture for 16–18 days and then treated with 5 μM oligomeric Aβ along with ENT-A013 (500 nM) for 4 h. Cells were then fixed with 4% PFA and immunostained against Tuj1 and Synaptophysin (1:1000, PA1-1043, Invitrogen, Waltham, MA, USA), anti-mouse Alexa fluor 488 (1:1000, A-11029, Invitrogen, Waltham, MA, USA) and anti-rabbit Alexa fluor 546 (1:1000, A10040, Invitrogen, Waltham, MA, USA). Images were acquired using confocal microscopy and the total area of synaptophysin positive puncta was measured and normalized to Tuj1 total area.

p75^NTR = biological target: T1, p75^NTR (Homo sapiens, UniProt P08138); assay: p75NTR activation in HEK cells transfected with p75NTR and Traf6 (immunoprecipitation); type: cell-based; conditions: 500 nM, 30′
T1 construct: expressed in transfected cells; host or cells: HEK293T (transient, lipofectamine)
Experimental: PC12 and HEK293T cells were obtained from LGC Promochem GmbH (Teddington, UK) and cultured under the conditions specified by the manufacturer. NIH3T3 cells were stably transfected with human TrkB plasmid. PC12 cells were grown in DMEM medium (11965084, Gibco, Grand Island, NY, USA) containing 10% Horse Serum (16050122, Gibco, Grand Island, NY, USA), 5% Fetal Bovine Serum (10270106, Gibco, Grand Island, NY, USA), 100 units/mL Penicillin and 0.1 mg/mL Streptomycin (15140122, Gibco, Grand Island, NY, USA) at 5% CO2 and 37 °C. Cells were used between passages 5–20. HEK293T and NIH3T3 cells were grown in the same medium as PC12 cells supplemented with 10% Fetal Bovine Serum and lacking Horse Serum. For transient transfection of HEK293T cells, lipofectamine was used and cells were transfected with human p75^NTR and Traf6 plasmids. To determine the intracellular activity of endogenous secretases, we tagged (tGFP) a truncated mutant (Tm) of APP containing the original amino acids sequence from M516 to N773. This Tm conserves the secretases cleavage sites, clathrin binding site, tau protein binding site, collagen binding site and some glycosylation sites critical for protein localization and intracellular trafficking. The cDNA of the TmAPP gene was amplified by PCR and subcloned into pturbo-GFP vector. […]

NIH-3T3-TrkB cells = assay: CellTox assay in serum-starved NIH-3T3-TrkB cells; type: cell-based; conditions: 24hrs
Experimental: treated with ENT-A013 (500nM) or Neurotrophin-3 (100ng/ml) for 30’ and then subjected to Western Blot against phosphorylated TrkC, Akt and Erk1/2. […]
phosphorylated any of those. (D) CellTox assay was performed in NIH-3T3-TrkB cells that were starved from serum and treated with ENT-A013 or BDNF for 24hrs. Quantification (E) […]
negative control (Serum Free).
Supplementary Figure S3: Primary DRG neurons were cultured in the presence of ENT-A013 (500nM, supplemented every 48hrs) and a neutralizing antibody against NGF for 5 days and then neurite length was measured by immunostaining against Tuj1 .
Supplementary Figure S4: Primary hippocampal neurons at 14-16 DIV were treated with oligomeric Aβ and in the presence of ENT-A013 (500nM, supplemented every 24hrs) for 48hrs and then were subjected to Western Blot against phosphorylated JNK. A representative blot […]

T1 sequence (P08138 29-427): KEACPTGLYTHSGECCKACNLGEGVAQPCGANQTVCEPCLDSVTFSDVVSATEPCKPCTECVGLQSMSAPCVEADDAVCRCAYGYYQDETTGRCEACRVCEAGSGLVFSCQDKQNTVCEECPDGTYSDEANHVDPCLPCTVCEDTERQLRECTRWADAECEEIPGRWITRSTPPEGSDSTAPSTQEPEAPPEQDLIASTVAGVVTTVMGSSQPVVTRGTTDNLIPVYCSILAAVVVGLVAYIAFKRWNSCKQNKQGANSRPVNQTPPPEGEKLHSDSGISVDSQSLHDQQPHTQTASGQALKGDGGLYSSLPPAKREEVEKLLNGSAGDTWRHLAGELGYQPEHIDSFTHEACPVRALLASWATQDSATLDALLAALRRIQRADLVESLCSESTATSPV

**Q.** With `CC12CCC(O)CC1=CCC1C2CCC2(C)C1CCC21CC1C=CBr` [ENT-A013, (2′R,3S,17S)-2′-(2-Bromovinyl)-5-Androstene-17,1′-Cyclopropan-3-ol] as the compound, how does the “synapse number (synaptophysin area normalized to Tuj1 area)” value [1] read?
**A.** 1.08 ± 0.08 % of control FC

**Q.** And the “p75NTR activation (in words)” value (p75^NTR)?
**A.** does not activate

**Q.** And the “cell death vs negative control (Serum Free) (in words)” value (NIH-3T3-TrkB cells)?
**A.** no significant difference
